# From ChEMBL document CHEMBL1133416, “Solid phase synthesis of diamides as potential bone resorption inhibitors” (Bioorg Med Chem Lett, 2000)
# Tests used:
# [1] = biological target: T1, Adenosinetriphosphatase (Gallus gallus, UniProt Q9I8A2); assay: Compound was tested for inhibition of osteoclast vacuolar ATPase derived from chicken medullary bone
# [2] = biological target: T1, Adenosinetriphosphatase; assay: Compound was tested for in vitro inhibition of osteoclast vacuolar acid pump; format: functional
# [3] = Compound was tested at 9 uM for inhibition of V-ATPase mediated proton transport in membrane vesicles derived from chicken medullary bone
# T1 sequence (Q9I8A2 whole entry): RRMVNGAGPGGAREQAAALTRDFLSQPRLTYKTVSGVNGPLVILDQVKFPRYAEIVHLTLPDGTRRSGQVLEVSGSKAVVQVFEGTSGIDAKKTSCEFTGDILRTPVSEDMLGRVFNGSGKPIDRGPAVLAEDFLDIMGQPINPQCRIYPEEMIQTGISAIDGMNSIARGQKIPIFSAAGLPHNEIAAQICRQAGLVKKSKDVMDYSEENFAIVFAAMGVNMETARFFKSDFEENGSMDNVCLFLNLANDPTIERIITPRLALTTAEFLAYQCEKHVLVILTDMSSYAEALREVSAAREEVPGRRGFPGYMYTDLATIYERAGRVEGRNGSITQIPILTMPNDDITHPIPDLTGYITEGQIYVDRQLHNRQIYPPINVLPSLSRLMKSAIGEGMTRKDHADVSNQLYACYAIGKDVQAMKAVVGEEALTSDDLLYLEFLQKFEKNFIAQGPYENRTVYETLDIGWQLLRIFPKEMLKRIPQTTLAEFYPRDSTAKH
IC50 [2],inhibition [3],SMILES,IC50 [1]
,,CO/C(=C\C=C\c1cc2cc(Cl)c(Cl)cc2[nH]1)C(=O)NC1CC(C)(C)NC(C)(C)C1,49 nM
4900 nM,,CC1(C)CC(NC(=O)c2cccc(CC(=O)Nc3ccc(Cl)c(Cl)c3)c2)CC(C)(C)N1,
,,CO/C1=C\C(C)=C\[C@@H](C)[C@@H](O)[C@@H](C)C/C(C)=C/C=C/[C@H](OC)[C@@H]([C@@H](C)[C@@H](O)[C@H](C)[C@@]2(O)C[C@@H](O)[C@H](C)[C@@H](C(C)C)O2)OC1=O [BAFILOMYCIN A1],30 nM
1500 nM,51%,CC1(C)CC(NC(=O)/C=C/C=C/C(=O)Nc2ccc(Cl)c(Cl)c2)CC(C)(C)N1,
